US20080119456A1, “Substituted Thiazoleacetic Acid as Crth2 Ligands” (priority 2004, published 2008)
pIC50: −log10 of the molar value.

Assays:
[1] = biological target: T1, human CRTH2 receptor (Homo sapiens, UniProt Q9Y5Y4, V204A); experiment: Receptor binding assay: [3H]PGD2 competition on whole COS-7 cells transfected with CRTH2; details: 0.1 nM [3H]PGD2, whole cells, 3 h at 4° C.
T1 construct: expressed in transfected cells; host or cells: COS-7 cells, transient, pcDNA3.1(+)
T1 sequence (Q9Y5Y4 1-395 V204A): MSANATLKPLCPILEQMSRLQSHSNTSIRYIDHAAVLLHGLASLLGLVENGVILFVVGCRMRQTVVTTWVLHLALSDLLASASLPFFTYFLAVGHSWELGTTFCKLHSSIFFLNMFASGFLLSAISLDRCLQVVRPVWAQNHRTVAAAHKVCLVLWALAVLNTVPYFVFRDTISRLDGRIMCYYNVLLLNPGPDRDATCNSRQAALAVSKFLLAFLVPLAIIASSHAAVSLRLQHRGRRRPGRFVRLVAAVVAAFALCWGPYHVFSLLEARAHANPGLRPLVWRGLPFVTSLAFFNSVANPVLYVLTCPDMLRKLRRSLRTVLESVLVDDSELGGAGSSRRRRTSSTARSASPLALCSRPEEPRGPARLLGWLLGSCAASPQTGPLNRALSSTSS
Excerpt: (§1) Generation/origin of the cDNA Constructs. The coding sequence of the human CRTH2 receptor (genbank accession no NM_004778) was amplified by PCR from a human hippocampus cDNA library and inserted into the pcDNA3.1(+) expression vector (invitrogen) via 5′ HindIII and 3′ EcoRI. To generate a CRTH2-Renilla luciferase (CRTH2-Rluc) fusion protein, the CRTH2 coding sequence without a STOP codon and Rluc were amplified, fused in frame by PCR and subcloned into the pcDNA3.1(+)Zeo expression vector (invitrogen). Human β-arrestin2 (β-arr2) N-terminally tagged with GFP^2 (βarr2-GFP^2) and Renilla luciferase were purchased from BioSignal Packard Inc, (Montreal, Canada). The sequence identity of the construct was verified by restriction endonuclease digests and sequencing in both directions on an ABI Prism (Applied Biosystems, Foster City, Calif.).
(§2) Cell Culture and Transfection. COS-7 cells were grown in Dulbecco's modified Eagle's medium (DMEM) 1885 supplemented with 10% fetal bovine serum, 100 units/ml penicillin, […] streptomycin, and kept at 37° C. in a 10% CO2 atmosphere. HEK293 cells were maintained in Minimum Essential medium (MEM) supplemented with 10% (v/v) heat inactivated fetal calf serum (HIFCS), 2 mM Glutamax™-I, 1% non essential amino acids (NEAA), 1% sodium pyruvate and 10 μg/ml gentamicin. For binding experiments, COS7 cells were transiently transfected with the CRTH2 receptor using a calcium phosphate-DNA coprecipitation method with the addition of chloroquine (as described by Hoist et al., 2001*). To perform the functional Bioluminescence Resonance Energy Transfer (BRET) assays, a HEK293 cell clone stably expressing βarr2-GFP^2 and CRTH2-Rluc was generated (CRTH2-HEK293 cells).
Binding assay. 24 h after transfection COS-7 cells were seeded into 96 well plates at a density of 30.000 cells/well. Competition binding experiments on whole cells were then performed about 18-24 h later using 0.1 nM [^3H]PGD2 (NEN, 172 Ci/mmol) in a binding buffer consisting of HBSS (GIBCO) and 10 mM HEPES. Competing ligands were diluted in DMSO which was kept constant at 1% (v/v) of the final incubation volume. Total and nonspecific binding were determined in the absence and presence of 10 μM PGD2. Binding reactions were routinely conducted for 3 h at 4° C. and terminated by 2 washes (100 μl each) with ice cold binding buffer. Radioactivity was determined by liquid scintillation counting in a TOPCOUNTER (Packard) following over night incubation in Microscint 20. Stable HEK293 cells were seeded at a density of 30.000 cells/well 18-24 h prior to the binding assay which was performed essentially as described for COS7 cells above. Determinations were made in duplicates.
(§3) Curve analysis was performed with the GraphPadPrism software 3.0 (Graphpad Prism Inc., San Diego, USA) and IC50 values were calculated as a measure of the antagonistic potencies.

[2] = biological target: T2, human CRTH2-Rluc (Homo sapiens, UniProt Q9Y5Y4, V204A); experiment: Functional antagonist BRET assay on HEK293 cells stably expressing CRTH2-Rluc and GFP2-β-arr2; assay type: cell-based; details: antagonist incubated 15 minutes before agonist, read-out: Antag. IC50
T2 construct: expressed in transfected cells
T2 sequence (Q9Y5Y4 1-395 V204A): T1 sequence (Q9Y5Y4 1-395 V204A)
Excerpt: as §1, §2
BRET assay. Functional BRET assays were performed on HEK293 cells stably expressing human CRTH2-Rluc and GFP^2-β-arr2. Prior to their use in the BRET assay cells were detached and re-suspended in D-PBS with 1000 mg/L L-Glucose at a density of 2×10^6 cells/mL. DeepBlueC™ was diluted to 50 μM in D-PBS with 1000 mg/L L-Glucose (light sensitive). 100 μL of cell suspension was transferred to wells in a 96-well microplate (white OptiPlate) and placed in the Mithras LB 940 instrument (BERTHOLD TECHNOLOGIES, Bad Wildbad, Germany). 12 μL/well agonist was then injected by injector 1 and 10 μL/well DeepBlueC™ was injected simultaneously by injector 2. Five seconds after the injections the light output from the well was measured sequentially at 400 nm and 515 nm, and the BRET signal (mBRET ratio) was calculated by the ratio of the fluorescence emitted by GFP^2-β-arr2 (515 nm) over the light emitted by the receptor-Rluc (400 nm). Antagonists were added before placing the microplates into the Mithras LB 940 and allowed to incubate for 15 minutes prior to the addition of agonist and DeepBlueC™. Compounds were dissolved in DMSO and the final DMSO concentration was kept constant at 1% in the assay.
as §3

Row | SMILES | pIC50 [1] | pIC50 [2]
1 | O=C(O)Cc1sc(C(c2ccccc2)c2ccccc2)nc1-c1ccccc1 [Compound A11, (2-Benzhydryl-4-phenyl-thiazol-5-yl)-acetic acid] | 5.30 to 6.30 | > 6.30
2 | O=C(O)Cc1sc(C2(c3ccccc3)CCNCC2)nc1-c1ccc(Cl)cc1 [Compound A46, [4-(4-Chloro-phenyl)-2-(4-phenyl-piperidin-4-yl)-thiazol-5-yl]-acetic acid] | 5.30 to 6.30 | < 5.30
3 | O=C(O)Cc1sc(C(Cc2ccccc2)c2ccccc2)nc1-c1ccc(Cl)cc1 (stereo not drawn) [Compound A5, [4-(4-Chloro-phenyl)-2-(1,2-diphenyl-ethyl)-thiazol-5-yl]-acetic acid] | > 6.30 | 5.30 to 6.30
4 | COc1ccc(C(c2ccccn2)c2nc(-c3ccc(Cl)cc3)c(CC(=O)O)s2)cc1 (stereo not drawn) [Compound A31, {4-(4-Chloro-phenyl)-2-[(4-methoxy-phenyl)-pyridin-2-yl-methyl]-thiazol-5-yl}-acetic acid] | > 6.30 | > 6.30
5 | O=C(O)Cc1sc(Cc2ccccc2-c2ccccc2)nc1-c1ccc(F)cc1 [Compound A36, [2-Biphenyl-2-ylmethyl-4-(4-fluoro-phenyl)-thiazol-5-yl]-acetic acid] | > 6.30 | > 6.30
6 | COc1ccc(-c2ccccc2Cc2nc(-c3ccc(F)cc3)c(CC(=O)O)s2)cc1 [Compound A40, [4-(4-Fluoro-phenyl)-2-(4′-methoxy-biphenyl-2-ylmethyl)-thiazol-5-yl]-acetic acid] | > 6.30 | > 6.30
7 | COc1ccc(-c2nc(C(c3ccccc3)c3ccccc3)sc2CC(=O)O)cc1 [Compound A12, [2-Benzhydryl-4-(4-methoxy-phenyl)-thiazol-5-yl]-acetic acid] | > 6.30 | 5.30 to 6.30
8 | O=C(O)Cc1sc(C(c2ccc(F)cc2)c2ccc(F)cc2)nc1-c1ccc(F)cc1 [Compound A14, [2-[Bis-(4-fluoro-phenyl)-methyl]-4-(4-fluoro-phenyl)-thiazol-5-yl]-acetic acid] | > 6.30 | > 6.30
9 | O=C(O)Cc1sc(C(c2ccc(F)cc2)c2ccc(F)cc2)nc1-c1ccc(F)c(F)c1 [Compound A25, [2-[Bis-(4-fluoro-phenyl)-methyl]-4-(3,4-difluoro-phenyl)-thiazol-5-yl]-acetic acid] | > 6.30 | > 6.30
10 | O=C(O)Cc1sc(Cc2ccccc2-c2ccccc2)nc1-c1ccc(Cl)cc1 [Compound A34, [2-Biphenyl-2-ylmethyl-4-(4-chloro-phenyl)-thiazol-5-yl]-acetic acid] | > 6.30 | > 6.30
11 | O=C(O)Cc1sc(C(Cc2ccccc2)c2ccc(Cl)cc2)nc1-c1ccc(F)cc1 (stereo not drawn) [Compound A7, [2-[1-(4-Chloro-phenyl)-2-phenyl-ethyl]-4-(4-fluoro-phenyl)-thiazol-5-yl]-acetic acid] | > 6.30 | > 6.30
12 | O=C(O)Cc1sc(C(c2ccccc2)c2ccccc2)nc1-c1ccc(C(F)(F)F)cc1 [Compound A24, [2-Benzhydryl-4-(4-trifluoromethyl-phenyl)-thiazol-5-yl]-acetic acid] | 5.30 to 6.30 | < 5.30

Next, values leading:

Row | pIC50 [1] | pIC50 [2] | SMILES
13 | > 6.30 | > 6.30 | COc1ccc(C(c2ccccc2)c2nc(-c3ccc(Cl)cc3)c(CC(=O)O)s2)cc1 (stereo not drawn) [Compound A16, {4-(4-Chloro-phenyl)-2-[(4-methoxy-phenyl)-phenyl-methyl]-thiazol-5-yl}-acetic acid]
14 | > 6.30 | > 6.30 | O=C(O)Cc1sc(C(c2ccccc2)c2ccc(Cl)cc2)nc1-c1ccc(F)cc1 (stereo not drawn) [Compound A10, [2-[(4-Chloro-phenyl)-phenyl-methyl]-4-(4-fluoro-phenyl)-thiazol-5-yl]-acetic acid]
15 | > 6.30 | > 6.30 | O=C(O)Cc1sc(C(c2ccccc2)c2ccccc2)nc1-c1ccc(Cl)cc1 [Compound A1, [2-Benzhydryl-4-(4-chloro-phenyl)-thiazol-5-yl]-acetic acid]
16 | > 6.30 | > 6.30 | O=C(O)Cc1sc(C(c2ccccc2)c2ccc(Cl)cc2)nc1-c1ccc(Cl)cc1 (stereo not drawn) [Compound A8, {4-(4-Chloro-phenyl)-2-[(4-chloro-phenyl)-phenyl-methyl]-thiazol-5-yl}-acetic acid]
17 | > 6.30 | 5.30 to 6.30 | O=C(O)Cc1sc(C(Cc2ccccc2)c2ccc(Cl)cc2)nc1-c1ccc(Cl)cc1 (stereo not drawn) [Compound A9, {4-(4-Chloro-phenyl)-2-[1-(4-chloro-phenyl)-2-phenyl-ethyl]-thiazol-5-yl}-acetic acid]
18 | > 6.30 | > 6.30 | O=C(O)Cc1sc(C(c2ccccc2)c2ccc(F)cc2)nc1-c1ccc(Cl)cc1 (stereo not drawn) [Compound A13, {4-(4-Chloro-phenyl)-2-[(4-fluoro-phenyl)-phenyl-methyl]-thiazol-5-yl}-acetic acid]
